# Structures can show the parent of a compound that is named as a salt.
# Legend:
# [1] = Elimination of the molecules: cumulative urinary and faecal excretion 0-72 hours; format: in vivo, mouse; details: for Faecal elimination 0-72 hours (Faeces) / Urinary and faecal elimination 0-72 hours (Total) / Urinary elimination 0-72 hours (Urine): cumulative excretion 0-72 hours; for Faecal elimination 0-72 hours (Faeces) / Urinary elimination 0-72 hours (Urine): mice in metabolic cages; for Urinary and faecal elimination 0-72 hours (Total): urine + faeces; for elimination route (in words): urinary versus faecal, 0-72 hours
# [2] = tested on: grafted B16 F0 murine melanoma tumour; experiment: Biodistribution of the ^125I-labelled molecules in the melanoma-bearing mouse (autoradiography of whole-body sections); details: for Concentration of radioactivity, B 16 (tumour), Mean / Concentration of radioactivity, Ic (intestinal contents), Mean / Concentration of radioactivity, Sc (stomach contents), Mean / Concentration of radioactivity, blood (measured in the heart cavity), Mean / Concentration of radioactivity, brain, Mean / Concentration of radioactivity, kidney, Mean / Concentration of radioactivity, liver, Mean / Concentration of radioactivity, lungs, Mean / Concentration of radioactivity, muscle (skeletal muscle), Mean / Concentration of radioactivity, pancreas, Mean / Concentration of radioactivity, spleen, Mean / Concentration of radioactivity, uvea (pigmented tissues of the eye), Mean: ^125I-labelled compound
# Procedure: The distribution of the radioactivity of the various compounds in the body (tumour and other organs) is quantified using an Ambis 4000 image analyzer on sections of whole animals. […] All the in vivo experimentation is carried out within the context defined by French legislation relating to animal experimentation.
# The B16 F0 melanoma cells are provided by the ATCC and cultured in monolayers in culture medium (MEM, Invitrogen) supplemented with 10% foetal calf serum and antibiotics. The cultures are maintained by subculturing after trypsinization. The cells of the first passages are frozen and stored in liquid nitrogen. For the transplanting, the cells in culture at confluence are detached by trypsinization and washed with phosphate buffer (PBS).
# The distribution of the radioactivity present in the sections is analyzed using an AMBIS 4000 analyzer (Scanalytics, CSPI, San Diego, Calif.), which is a proportional counter with a multiwire chamber validated and calibrated beforehand for the monitoring of iodine in the mouse. The measurements require acquisition times of 1000 minutes. […] The value of radioactivity per unit of surface area (cpm/mm^2) is converted to concentration (kBq/g) and expressed as percentage of the injected dose/g of tissue (% ID/g).
# [3] = tested on: tumour; experiment: Dosimetry with regard to the tumour (MIRD programme, extrapolated to ^131I); details: for Effective period: extrapolated to 131I labelling; for Biological period: from biodistribution data
compound,measurement,setting,value
"CCN(CC)CCNC(=O)c1cc2cc(I)ccc2[nH]1 [compound 10, N-(2-diethylaminoethyl)-5-iodoindole-2-carboxamide hydrochloride]",Faecal elimination 0-72 hours (Faeces),[1],61.7%
same,Urinary and faecal elimination 0-72 hours (Total),[1],83.2%
same,Urinary elimination 0-72 hours (Urine),[1],21.5%
same,elimination route (in words),[1],faecal route predominates
same,"Concentration of radioactivity, B 16 (tumour), Mean",[2]; 1 H after i.v. administration,8.31 % ID/g
same,"Concentration of radioactivity, Ic (intestinal contents), Mean",[2]; 1 H after i.v. administration,76.74 % ID/g
same,"Concentration of radioactivity, Sc (stomach contents), Mean",[2]; 1 H after i.v. administration,35.41 % ID/g
same,"Concentration of radioactivity, blood (measured in the heart cavity), Mean",[2]; 1 H after i.v. administration,1.60 % ID/g
same,"Concentration of radioactivity, brain, Mean",[2]; 1 H after i.v. administration,4.84 % ID/g
same,"Concentration of radioactivity, kidney, Mean",[2]; 1 H after i.v. administration,10.87 % ID/g
same,"Concentration of radioactivity, liver, Mean",[2]; 1 H after i.v. administration,11.86 % ID/g
same,"Concentration of radioactivity, lungs, Mean",[2]; 1 H after i.v. administration,14.41 % ID/g
same,"Concentration of radioactivity, muscle (skeletal muscle), Mean",[2]; 1 H after i.v. administration,1.50 % ID/g
same,"Concentration of radioactivity, pancreas, Mean",[2]; 1 H after i.v. administration,7.15 % ID/g
same,"Concentration of radioactivity, spleen, Mean",[2]; 1 H after i.v. administration,8.09 % ID/g
same,"Concentration of radioactivity, uvea (pigmented tissues of the eye), Mean",[2]; 1 H after i.v. administration,11.70 % ID/g
same,"Concentration of radioactivity, B 16 (tumour), Mean",[2]; 3 H after i.v. administration,10.22 % ID/g
same,"Concentration of radioactivity, Ic (intestinal contents), Mean",[2]; 3 H after i.v. administration,112.56 % ID/g
same,"Concentration of radioactivity, Sc (stomach contents), Mean",[2]; 3 H after i.v. administration,18.52 % ID/g
same,"Concentration of radioactivity, blood (measured in the heart cavity), Mean",[2]; 3 H after i.v. administration,0.79 % ID/g
same,"Concentration of radioactivity, brain, Mean",[2]; 3 H after i.v. administration,1.73 % ID/g
same,"Concentration of radioactivity, kidney, Mean",[2]; 3 H after i.v. administration,4.19 % ID/g
same,"Concentration of radioactivity, liver, Mean",[2]; 3 H after i.v. administration,5.21 % ID/g
same,"Concentration of radioactivity, lungs, Mean",[2]; 3 H after i.v. administration,3.46 % ID/g
same,"Concentration of radioactivity, muscle (skeletal muscle), Mean",[2]; 3 H after i.v. administration,0.49 % ID/g
same,"Concentration of radioactivity, pancreas, Mean",[2]; 3 H after i.v. administration,2.48 % ID/g
same,"Concentration of radioactivity, spleen, Mean",[2]; 3 H after i.v. administration,2.79 % ID/g
same,"Concentration of radioactivity, uvea (pigmented tissues of the eye), Mean",[2]; 3 H after i.v. administration,12.78 % ID/g
same,"Concentration of radioactivity, B 16 (tumour), Mean",[2]; 6 H after i.v. administration,9.84 % ID/g
same,"Concentration of radioactivity, Ic (intestinal contents), Mean",[2]; 6 H after i.v. administration,79.85 % ID/g
same,"Concentration of radioactivity, Sc (stomach contents), Mean",[2]; 6 H after i.v. administration,21.84 % ID/g
same,"Concentration of radioactivity, blood (measured in the heart cavity), Mean",[2]; 6 H after i.v. administration,0.67 % ID/g
same,"Concentration of radioactivity, brain, Mean",[2]; 6 H after i.v. administration,0.74 % ID/g
same,"Concentration of radioactivity, kidney, Mean",[2]; 6 H after i.v. administration,2.50 % ID/g
same,"Concentration of radioactivity, liver, Mean",[2]; 6 H after i.v. administration,3.63 % ID/g
same,"Concentration of radioactivity, lungs, Mean",[2]; 6 H after i.v. administration,1.70 % ID/g
same,"Concentration of radioactivity, muscle (skeletal muscle), Mean",[2]; 6 H after i.v. administration,0.31 % ID/g
same,"Concentration of radioactivity, pancreas, Mean",[2]; 6 H after i.v. administration,1.46 % ID/g
same,"Concentration of radioactivity, spleen, Mean",[2]; 6 H after i.v. administration,1.68 % ID/g
same,"Concentration of radioactivity, uvea (pigmented tissues of the eye), Mean",[2]; 6 H after i.v. administration,13.20 % ID/g
same,"Concentration of radioactivity, B 16 (tumour), Mean",[2]; 24 H after i.v. administration,8.16 % ID/g
same,"Concentration of radioactivity, Ic (intestinal contents), Mean",[2]; 24 H after i.v. administration,3.31 % ID/g
same,"Concentration of radioactivity, Sc (stomach contents), Mean",[2]; 24 H after i.v. administration,2.10 % ID/g
same,"Concentration of radioactivity, blood (measured in the heart cavity), Mean",[2]; 24 H after i.v. administration,0.10 % ID/g
same,"Concentration of radioactivity, brain, Mean",[2]; 24 H after i.v. administration,0.00 % ID/g
same,"Concentration of radioactivity, kidney, Mean",[2]; 24 H after i.v. administration,0.83 % ID/g
same,"Concentration of radioactivity, liver, Mean",[2]; 24 H after i.v. administration,1.61 % ID/g
same,"Concentration of radioactivity, lungs, Mean",[2]; 24 H after i.v. administration,0.37 % ID/g
same,"Concentration of radioactivity, muscle (skeletal muscle), Mean",[2]; 24 H after i.v. administration,0.19 % ID/g
same,"Concentration of radioactivity, pancreas, Mean",[2]; 24 H after i.v. administration,0.09 % ID/g
same,"Concentration of radioactivity, spleen, Mean",[2]; 24 H after i.v. administration,1.22 % ID/g
same,"Concentration of radioactivity, uvea (pigmented tissues of the eye), Mean",[2]; 24 H after i.v. administration,8.81 % ID/g
same,"Concentration of radioactivity, B 16 (tumour), Mean",[2]; 72 H after i.v. administration,0.84 % ID/g
same,"Concentration of radioactivity, Sc (stomach contents), Mean",[2]; 72 H after i.v. administration,0.04 % ID/g
same,"Concentration of radioactivity, kidney, Mean",[2]; 72 H after i.v. administration,0.71 % ID/g
same,"Concentration of radioactivity, liver, Mean",[2]; 72 H after i.v. administration,0.61 % ID/g
same,"Concentration of radioactivity, uvea (pigmented tissues of the eye), Mean",[2]; 72 H after i.v. administration,5.86 % ID/g
same,Effective period,[3],18.2 h
same,Biological period,[3],20.1 hours
"CCN(CC)CCNC(=O)c1ccc2cc(I)ccc2n1.Cl.Cl [compound 31, N-(2-diethylaminoethyl)-6-iodoquinoline-2-carboxamide dihydrochloride]",Faecal elimination 0-72 hours (Faeces),[1],11.4%
same,Urinary and faecal elimination 0-72 hours (Total),[1],91.2%
same,Urinary elimination 0-72 hours (Urine),[1],80.7%
same,elimination route (in words),[1],predominantly in the urine
same,"Concentration of radioactivity, B 16 (tumour), Mean",[2]; 1 H after i.v. administration,19.63 % ID/g
same,"Concentration of radioactivity, Ic (intestinal contents), Mean",[2]; 1 H after i.v. administration,15.78 % ID/g
same,"Concentration of radioactivity, Sc (stomach contents), Mean",[2]; 1 H after i.v. administration,48.03 % ID/g
same,"Concentration of radioactivity, blood (measured in the heart cavity), Mean",[2]; 1 H after i.v. administration,7.01 % ID/g
same,"Concentration of radioactivity, brain, Mean",[2]; 1 H after i.v. administration,1.96 % ID/g
same,"Concentration of radioactivity, kidney, Mean",[2]; 1 H after i.v. administration,11.82 % ID/g
same,"Concentration of radioactivity, liver, Mean",[2]; 1 H after i.v. administration,10.92 % ID/g
same,"Concentration of radioactivity, lungs, Mean",[2]; 1 H after i.v. administration,9.41 % ID/g
same,"Concentration of radioactivity, muscle (skeletal muscle), Mean",[2]; 1 H after i.v. administration,1.79 % ID/g
same,"Concentration of radioactivity, pancreas, Mean",[2]; 1 H after i.v. administration,9.80 % ID/g
same,"Concentration of radioactivity, spleen, Mean",[2]; 1 H after i.v. administration,11.56 % ID/g
same,"Concentration of radioactivity, uvea (pigmented tissues of the eye), Mean",[2]; 1 H after i.v. administration,32.71 % ID/g
same,"Concentration of radioactivity, B 16 (tumour), Mean",[2]; 3 H after i.v. administration,25.35 % ID/g
same,"Concentration of radioactivity, Ic (intestinal contents), Mean",[2]; 3 H after i.v. administration,20.65 % ID/g
same,"Concentration of radioactivity, Sc (stomach contents), Mean",[2]; 3 H after i.v. administration,34.72 % ID/g
same,"Concentration of radioactivity, blood (measured in the heart cavity), Mean",[2]; 3 H after i.v. administration,5.57 % ID/g
same,"Concentration of radioactivity, brain, Mean",[2]; 3 H after i.v. administration,0.83 % ID/g
same,"Concentration of radioactivity, kidney, Mean",[2]; 3 H after i.v. administration,12.59 % ID/g
same,"Concentration of radioactivity, liver, Mean",[2]; 3 H after i.v. administration,8.89 % ID/g
same,"Concentration of radioactivity, lungs, Mean",[2]; 3 H after i.v. administration,5.58 % ID/g
same,"Concentration of radioactivity, muscle (skeletal muscle), Mean",[2]; 3 H after i.v. administration,1.14 % ID/g
same,"Concentration of radioactivity, pancreas, Mean",[2]; 3 H after i.v. administration,6.17 % ID/g
same,"Concentration of radioactivity, spleen, Mean",[2]; 3 H after i.v. administration,10.63 % ID/g
same,"Concentration of radioactivity, uvea (pigmented tissues of the eye), Mean",[2]; 3 H after i.v. administration,33.10 % ID/g
same,"Concentration of radioactivity, B 16 (tumour), Mean",[2]; 6 H after i.v. administration,17.21 % ID/g
same,"Concentration of radioactivity, Ic (intestinal contents), Mean",[2]; 6 H after i.v. administration,23.36 % ID/g
same,"Concentration of radioactivity, Sc (stomach contents), Mean",[2]; 6 H after i.v. administration,65.36 % ID/g
same,"Concentration of radioactivity, blood (measured in the heart cavity), Mean",[2]; 6 H after i.v. administration,5.91 % ID/g
same,"Concentration of radioactivity, brain, Mean",[2]; 6 H after i.v. administration,0.37 % ID/g
same,"Concentration of radioactivity, kidney, Mean",[2]; 6 H after i.v. administration,7.60 % ID/g
same,"Concentration of radioactivity, liver, Mean",[2]; 6 H after i.v. administration,7.11 % ID/g
same,"Concentration of radioactivity, lungs, Mean",[2]; 6 H after i.v. administration,5.32 % ID/g
same,"Concentration of radioactivity, muscle (skeletal muscle), Mean",[2]; 6 H after i.v. administration,0.95 % ID/g
same,"Concentration of radioactivity, spleen, Mean",[2]; 6 H after i.v. administration,7.60 % ID/g
same,"Concentration of radioactivity, uvea (pigmented tissues of the eye), Mean",[2]; 6 H after i.v. administration,36.62 % ID/g
same,"Concentration of radioactivity, B 16 (tumour), Mean",[2]; 24 H after i.v. administration,12.13 % ID/g
same,"Concentration of radioactivity, Ic (intestinal contents), Mean",[2]; 24 H after i.v. administration,1.45 % ID/g
same,"Concentration of radioactivity, Sc (stomach contents), Mean",[2]; 24 H after i.v. administration,2.33 % ID/g
same,"Concentration of radioactivity, kidney, Mean",[2]; 24 H after i.v. administration,0.34 % ID/g
same,"Concentration of radioactivity, liver, Mean",[2]; 24 H after i.v. administration,2.25 % ID/g
same,"Concentration of radioactivity, lungs, Mean",[2]; 24 H after i.v. administration,0.53 % ID/g
same,"Concentration of radioactivity, spleen, Mean",[2]; 24 H after i.v. administration,2.66 % ID/g
same,"Concentration of radioactivity, uvea (pigmented tissues of the eye), Mean",[2]; 24 H after i.v. administration,22.27 % ID/g
same,"Concentration of radioactivity, B 16 (tumour), Mean",[2]; 72 H after i.v. administration,5.93 % ID/g
same,"Concentration of radioactivity, liver, Mean",[2]; 72 H after i.v. administration,1.23 % ID/g
same,"Concentration of radioactivity, spleen, Mean",[2]; 72 H after i.v. administration,1.85 % ID/g
same,"Concentration of radioactivity, uvea (pigmented tissues of the eye), Mean",[2]; 72 H after i.v. administration,18.30 % ID/g
same,"tumour concentration, times higher than with BZA",[2]; at 72 hours (FIG. 1B),8 times
same,"tumour concentration, % of the injected dose per gram of tumour",[2]; from the first hour,19.6 % ID/g
same,Effective period,[3],31.8 h
same,Biological period,[3],38.0 hours

# Source: patent publication US20100061928A1, “LABELLED ANALOGUES OF HALOBENZAMIDES AS RADIOPHARMACEUTICALS” (Institut National De La Sante et De La Recherche Medicale …, priority 2006, published 2010)
